Molecule `OCCOc1ccc2ccccc2c1-c1c(OCCO)ccc2ccccc12` has a solubility (mole fraction) (in acetone, 283.15 K) of 0.00658, a solubility (mole fraction) (in acetone, 288.15 K) of 0.00893 and a solubility (mole fraction) (in acetone, 293.15 K) of 0.0121. The solubility (mole fraction) (in acetone, 298.15 K) was 0.0153, the solubility (mole fraction) (in acetone, 303.15 K) was 0.0212 and the solubility (mole fraction) (in acetone, 308.15 K) was 0.027. The solubility (mole fraction) (in acetone, 313.15 K) was 0.0352, the solubility (mole fraction) (in acetone, 318.15 K) was 0.0441 and the solubility (mole fraction) (in acetone, 323.15 K) was 0.0567. The solubility (mole fraction) (in ethyl acetate, 283.15 K) was 0.00227, the solubility (mole fraction) (in ethyl acetate, 288.15 K) was 0.00328 and the solubility (mole fraction) (in ethyl acetate, 293.15 K) was 0.00464. The solubility (mole fraction) (in ethyl acetate, 298.15 K) was 0.00604, the solubility (mole fraction) (in ethyl acetate, 303.15 K) was 0.00802 and the solubility (mole fraction) (in ethyl acetate, 308.15 K) was 0.0104. For the same molecule, the solubility (mole fraction) (in ethyl acetate, 313.15 K) was 0.0133, the solubility (mole fraction) (in ethyl acetate, 318.15 K) was 0.0174 and the solubility (mole fraction) (in ethyl acetate, 323.15 K) was 0.0229. It also gave a solubility (mole fraction) (in ethyl formate, 283.15 K) of 0.00207, a solubility (mole fraction) (in ethyl formate, 288.15 K) of 0.00284 and a solubility (mole fraction) (in ethyl formate, 293.15 K) of 0.00399. It also gave a solubility (mole fraction) (in ethyl formate, 298.15 K) of 0.00539, a solubility (mole fraction) (in ethyl formate, 303.15 K) of 0.00721 and a solubility (mole fraction) (in ethyl formate, 308.15 K) of 0.00964. The solubility (mole fraction) (in ethyl formate, 313.15 K) was 0.0123, the solubility (mole fraction) (in ethyl formate, 318.15 K) was 0.0161 and the solubility (mole fraction) (in ethyl formate, 323.15 K) was 0.0209. For the same molecule, the solubility (mole fraction) (in isobutanol, 283.15 K) was 0.000512, the solubility (mole fraction) (in isobutanol, 288.15 K) was 0.000733 and the solubility (mole fraction) (in isobutanol, 293.15 K) was 0.00108. The solubility (mole fraction) (in isobutanol, 298.15 K) was 0.00147, the solubility (mole fraction) (in isobutanol, 303.15 K) was 0.00209 and the solubility (mole fraction) (in isobutanol, 308.15 K) was 0.00291. For the same molecule, the solubility (mole fraction) (in isobutanol, 313.15 K) was 0.00388, the solubility (mole fraction) (in isobutanol, 318.15 K) was 0.005 and the solubility (mole fraction) (in isobutanol, 323.15 K) was 0.00655. For the same molecule, the solubility (mole fraction) (in isobutyl acetate, 283.15 K) was 0.00105, the solubility (mole fraction) (in isobutyl acetate, 288.15 K) was 0.00158 and the solubility (mole fraction) (in isobutyl acetate, 293.15 K) was 0.0022. The solubility (mole fraction) (in isobutyl acetate, 298.15 K) was 0.00296, the solubility (mole fraction) (in isobutyl acetate, 303.15 K) was 0.00396 and the solubility (mole fraction) (in isobutyl acetate, 308.15 K) was 0.00518. For the same molecule, the solubility (mole fraction) (in isobutyl acetate, 313.15 K) was 0.00692, the solubility (mole fraction) (in isobutyl acetate, 318.15 K) was 0.00911 and the solubility (mole fraction) (in isobutyl acetate, 323.15 K) was 0.0117. For the same molecule, the solubility (mole fraction) (in isopropanol, 283.15 K) was 0.000762, the solubility (mole fraction) (in isopropanol, 288.15 K) was 0.00102 and the solubility (mole fraction) (in isopropanol, 293.15 K) was 0.00132. The solubility (mole fraction) (in isopropanol, 298.15 K) was 0.00187, the solubility (mole fraction) (in isopropanol, 303.15 K) was 0.00263 and the solubility (mole fraction) (in isopropanol, 308.15 K) was 0.00351. For the same molecule, the solubility (mole fraction) (in isopropanol, 313.15 K) was 0.00487, the solubility (mole fraction) (in isopropanol, 318.15 K) was 0.00649 and the solubility (mole fraction) (in isopropanol, 323.15 K) was 0.00847. For the same molecule, the solubility (mole fraction) (in methyl acetate, 283.15 K) was 0.00297, the solubility (mole fraction) (in methyl acetate, 288.15 K) was 0.00423 and the solubility (mole fraction) (in methyl acetate, 293.15 K) was 0.00595. For the same molecule, the solubility (mole fraction) (in methyl acetate, 298.15 K) was 0.00778, the solubility (mole fraction) (in methyl acetate, 303.15 K) was 0.0102 and the solubility (mole fraction) (in methyl acetate, 308.15 K) was 0.0137. It also gave a solubility (mole fraction) (in methyl acetate, 313.15 K) of 0.0173, a solubility (mole fraction) (in methyl acetate, 318.15 K) of 0.0218 and a solubility (mole fraction) (in methyl acetate, 323.15 K) of 0.0292. The solubility (mole fraction) (in n-butanol, 283.15 K) was 0.000873, the solubility (mole fraction) (in n-butanol, 288.15 K) was 0.00119 and the solubility (mole fraction) (in n-butanol, 293.15 K) was 0.00168. The solubility (mole fraction) (in n-butanol, 298.15 K) was 0.00242, the solubility (mole fraction) (in n-butanol, 303.15 K) was 0.00317 and the solubility (mole fraction) (in n-butanol, 308.15 K) was 0.00428. It also gave a solubility (mole fraction) (in n-butanol, 313.15 K) of 0.0058, a solubility (mole fraction) (in n-butanol, 318.15 K) of 0.00782 and a solubility (mole fraction) (in n-butanol, 323.15 K) of 0.0109. The solubility (mole fraction) (in n-butyl acetate, 283.15 K) was 0.00136, the solubility (mole fraction) (in n-butyl acetate, 288.15 K) was 0.00186 and the solubility (mole fraction) (in n-butyl acetate, 293.15 K) was 0.00286. It also gave a solubility (mole fraction) (in n-butyl acetate, 298.15 K) of 0.00389, a solubility (mole fraction) (in n-butyl acetate, 303.15 K) of 0.00486 and a solubility (mole fraction) (in n-butyl acetate, 308.15 K) of 0.00646. It also gave a solubility (mole fraction) (in n-butyl acetate, 313.15 K) of 0.0086, a solubility (mole fraction) (in n-butyl acetate, 318.15 K) of 0.0108 and a solubility (mole fraction) (in n-butyl acetate, 323.15 K) of 0.0144. The solubility (mole fraction) (in n-pentanol, 283.15 K) was 0.000827, the solubility (mole fraction) (in n-pentanol, 288.15 K) was 0.00116 and the solubility (mole fraction) (in n-pentanol, 293.15 K) was 0.00163. The solubility (mole fraction) (in n-pentanol, 298.15 K) was 0.00227, the solubility (mole fraction) (in n-pentanol, 303.15 K) was 0.00303 and the solubility (mole fraction) (in n-pentanol, 308.15 K) was 0.00413. It also gave a solubility (mole fraction) (in n-pentanol, 313.15 K) of 0.00551, a solubility (mole fraction) (in n-pentanol, 318.15 K) of 0.00725 and a solubility (mole fraction) (in n-pentanol, 323.15 K) of 0.00966. It also gave a solubility (mole fraction) (in n-propanol, 283.15 K) of 0.00111, a solubility (mole fraction) (in n-propanol, 288.15 K) of 0.00143 and a solubility (mole fraction) (in n-propanol, 293.15 K) of 0.00189. It also gave a solubility (mole fraction) (in n-propanol, 298.15 K) of 0.00268, a solubility (mole fraction) (in n-propanol, 303.15 K) of 0.00369 and a solubility (mole fraction) (in n-propanol, 308.15 K) of 0.00494. The solubility (mole fraction) (in n-propanol, 313.15 K) was 0.00644, the solubility (mole fraction) (in n-propanol, 318.15 K) was 0.00847 and the solubility (mole fraction) (in n-propanol, 323.15 K) was 0.012. For the same molecule, the solubility (mole fraction) (in toluene, 283.15 K) was 0.000885, the solubility (mole fraction) (in toluene, 288.15 K) was 0.00122 and the solubility (mole fraction) (in toluene, 293.15 K) was 0.00176. The solubility (mole fraction) (in toluene, 298.15 K) was 0.0025, the solubility (mole fraction) (in toluene, 303.15 K) was 0.00331 and the solubility (mole fraction) (in toluene, 308.15 K) was 0.00447. It also gave a solubility (mole fraction) (in toluene, 313.15 K) of 0.00595, a solubility (mole fraction) (in toluene, 318.15 K) of 0.00794 and a solubility (mole fraction) (in toluene, 323.15 K) of 0.0104.
